In this assay the target is human RIP1 kinase domain (2-375) (Homo sapiens (Human), UniProt Q13546). The assay is described as follows: biochemical. The assay is classed as biochemical. The settings on record: human RIP1 kinase domain (2-375), Transcreener ADP assay, 50 uM ATP, 2 hours incubation; read-out: RIP1 Ki. The method, boiled down:
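50 nM purified kinase domain from baculovirus-infected insect cells, incubated 2 h with compound in 50 mM Hepes pH 7.5, 30 mM MgCl2, 1 mM DTT, 50 uM ATP, 0.002% Brij-35, 0.5% DMSO. ADP formation read by Transcreener FP at 633 nm excitation. Ki^app fitted with the Morrison tight-binding equation.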

Chain of human RIP1 kinase domain (2-375) (Q13546 2-375): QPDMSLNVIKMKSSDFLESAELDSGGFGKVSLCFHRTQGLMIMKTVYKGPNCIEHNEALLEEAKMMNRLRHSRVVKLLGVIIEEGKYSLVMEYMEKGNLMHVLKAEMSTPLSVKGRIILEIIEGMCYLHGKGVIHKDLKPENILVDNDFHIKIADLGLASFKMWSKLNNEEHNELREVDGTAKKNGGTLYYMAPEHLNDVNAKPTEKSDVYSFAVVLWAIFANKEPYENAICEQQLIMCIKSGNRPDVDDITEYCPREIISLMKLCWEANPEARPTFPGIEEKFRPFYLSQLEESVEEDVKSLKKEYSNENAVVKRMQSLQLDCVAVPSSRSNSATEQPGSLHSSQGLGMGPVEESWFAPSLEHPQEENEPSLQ

One may read the Ki as the equilibrium dissociation constant of an inhibitor or competing ligand from its target. Consider `Cc1ncn2c1N(C)C(=O)C(NC(=O)c1n[nH]c(Cc3ccccc3)n1)CC2` (stereo not shown) [Example 226, 5-benzyl-N-(1,9-dimethyl-2-oxo-2,3,4,5-tetrahydro-1H-imidazo[1,5-a][1,3]diazepin-3-yl)-1H-1,2,4-triazole-3-carboxamide], for which the Ki amounted to 183 nM.
The result for `Cc1ncn2c1N(C)C(=O)C(NC(=O)c1cn(Cc3ccccc3)nn1)CC2` (stereo not shown) [Example 227, 1-benzyl-N-(1,9-dimethyl-2-oxo-2,3,4,5-tetrahydro-1H-imidazo[1,5-a][1,3]diazepin-3-yl)-1H-1,2,3-triazole-4-carboxamide] reads 419 nM.
The same measure for `CC(C)c1ccc2[nH]nc(C(=O)N[C@H]3COc4ccccc4N(C)C3=O)c2c1` [Example 228, (S)-5-isopropyl-N-(5-methyl-4-oxo-2,3,4,5-tetrahydrobenzo[b][1,4]oxazepin-3-yl)-1H-indazole-3-carboxamide]: 5 nM.
The same measure for `CN1C(=O)[C@@H](NC(=O)c2cc3c(cn2)COC3(C)CC(F)(F)F)COc2ccccc21` (stereo partly drawn) [Example 229, 1-methyl-N—((S)-5-methyl-4-oxo-2,3,4,5-tetrahydrobenzo[b][1,4]oxazepin-3-yl)-1-(2,2,2-trifluoroethyl)-1,3-dihydrofuro[3,4-c]pyridine-6-carboxamide]: 44.6 nM; for `CN1C(=O)[C@@H](NC(=O)c2ncn3cnc(C(F)(F)F)cc23)COc2ccccc21` [Example 230, (S)—N-(5-methyl-4-oxo-2,3,4,5-tetrahydrobenzo[b][1,4]oxazepin-3-yl)-7-(trifluoromethyl) imidazo[1,5-c]pyrimidine-1-carboxamide]: 21.7 nM.
For `COCC1(C)OCc2cnc(C(=O)N[C@H]3COc4ccccc4N(C)C3=O)cc21` (stereo partly drawn) [Example 231, 1-(methoxymethyl)-1-methyl-N—((S)-5-methyl-4-oxo-2,3,4,5-tetrahydrobenzo[b][1,4]oxazepin-3-yl)-1,3-dihydrofuro[3,4-c]pyridine-6-carboxamide], the Ki turned out to be 511 nM.
`CN1C(=O)[C@@H](NC(=O)c2cc3c(cn2)COC32CCOC2)COc2ccccc21` (stereo partly drawn) [Example 232, N—((S)-5-methyl-4-oxo-2,3,4,5-tetrahydrobenzo[b][1,4]oxazepin-3-yl)-4,5-dihydro-2H,3′ H-spiro[furan-3,1′-furo[3,4-c]pyridine]-6′-carboxamide]: the Ki was found to be 88.7 nM.
Turning to `CC[C@@]1(C)OCc2cnc(C(=O)NC3CCn4ccnc4N(C)C3=O)cc21` (stereo partly drawn) [Example 233, (1R)-1-ethyl-1-methyl-N-(9-methyl-8-oxo-6,7,8,9-tetrahydro-5H-imidazo [1,2-a][1,3]diazepin-7-yl)-1,3-dihydrofuro[3,4-c]pyridine-6-carboxamide], the Ki worked out at 2000 nM.
The same measure for `CN1C(=O)C(NC(=O)c2ncn(Cc3ccccc3)n2)CCn2nc(C3CCOCC3)cc21` (stereo not shown) [Example 234, 1-benzyl-N-(4-methyl-5-oxo-2-(tetrahydro-2H-pyran-4-yl)-5,6,7,8-tetrahydro-4H-pyrazolo[1,5-a][1,3]diazepin-6-yl)-1H-1,2,4-triazole-3-carboxamide]: 199 nM; for `CN1C(=O)C(NC(=O)c2n[nH]c(Cc3ccccc3)n2)CCn2nc(C3CCOCC3)cc21` (stereo not shown) [Example 235, 5-benzyl-N-(4-methyl-5-oxo-2-(tetrahydro-2H-pyran-4-yl)-5,6,7,8-tetrahydro-4H-pyrazolo[1,5-a][1,3]diazepin-6-yl)-1H-1,2,4-triazole-3-carboxamide]: 226 nM.
The result for `CC[C@@]1(C)OCc2cnc(C(=O)NC3CCn4nc(C5CCOCC5)cc4N(C)C3=O)cc21` (stereo partly drawn) [Example 236, (1R)-1-ethyl-1-methyl-N-(4-methyl-5-oxo-2-(tetrahydro-2H-pyran-4-yl)-5,6,7,8-tetrahydro-4H-pyrazolo[1,5-a][1,3]diazepin-6-yl)-1,3-dihydrofuro[3,4-c]pyridine-6-carboxamide] reads 8000 nM.
The result for `CN1C(=O)C(NC(=O)c2cn(Cc3ccccc3)nn2)CCn2nc(C3CCOCC3)cc21` (stereo not shown) [Example 237, 1-benzyl-N-(4-methyl-5-oxo-2-(tetrahydro-2H-pyran-4-yl)-5,6,7,8-tetrahydro-4H-pyrazolo[1,5-a][1,3]diazepin-6-yl)-1H-1,2,3-triazole-4-carboxamide] reads 1400 nM; that for `CC(C)c1cnc2[nH]nc(C(=O)N[C@H]3COc4ccccc4N(C)C3=O)c2c1` [Example 238, (S)-5-isopropyl-N-(5-methyl-4-oxo-2,3,4,5-tetrahydrobenzo[b][1,4]oxazepin-3-yl)-1H-pyrazolo[3,4-b]pyridine-3-carboxamide], 54.7 nM; that for `CN1C(=O)[C@@H](NC(=O)c2n[nH]c3ncc(C4CC4)cc23)COc2ccccc21` [Example 239, (S)-5-cyclopropyl-N-(5-methyl-4-oxo-2,3,4,5-tetrahydrobenzo[b][1,4]oxazepin-3-yl)-1H-pyrazolo[3,4-b]pyridine-3-carboxamide], 289 nM.
For `Cc1cc2n(n1)CC[C@H](NC(=O)c1nnc(Cc3ccccc3)[nH]1)C(=O)N2C` [Example 240, (S)-5-benzyl-N-(2,4-dimethyl-5-oxo-5,6,7,8-tetrahydro-4H-pyrazolo[1,5-a][1,3]diazepin-6-yl)-4H-1,2,4-triazole-3-carboxamide], the Ki was 84.6 nM.
For the molecule `Cc1cc2n(n1)CC[C@@H](NC(=O)c1nnc(Cc3ccccc3)[nH]1)C(=O)N2C` [Example 241, (R)-5-benzyl-N-(2,4-dimethyl-5-oxo-5,6,7,8-tetrahydro-4H-pyrazolo[1,5-a][1,3]diazepin-6-yl)-4H-1,2,4-triazole-3-carboxamide], the Ki was found to be 8900 nM.
For `Cc1cc(Cn2cnc(C(=O)NC3CCn4nc(C5CC5)cc4N(C)C3=O)n2)ccn1` (stereo not shown) [Example 242, N-(2-cyclopropyl-4-methyl-5-oxo-5,6,7,8-tetrahydro-4H-pyrazolo[1,5-a][1,3]diazepin-6-yl)-1-((2-methylpyridin-4-yl)methyl)-1H-1,2,4-triazole-3-carboxamide], the inhibition constant (Ki) came to 5700 nM.
The result for `CC[C@]1(C)OCc2cnc(C(=O)N[C@H]3COc4cc(F)cc(F)c4NC3=O)cc21` [Example 243, (S)—N—((S)-6,8-difluoro-4-oxo-2,3,4,5-tetrahydrobenzo[b][1,4]oxazepin-3-yl)-1-ethyl-1-m ethyl-1,3-dihydrofuro[3,4-c]pyridine-6-carboxamide] reads 270 nM; that for `CC[C@@]1(C)OCc2cnc(C(=O)N[C@H]3COc4cc(F)cc(F)c4NC3=O)cc21` [Example 244, (R)—N—((S)-6,8-difluoro-4-oxo-2,3,4,5-tetrahydrobenzo[b][1,4]oxazepin-3-yl)-1-ethyl-1-methyl-1,3-dihydrofuro[3,4-c]pyridine-6-carboxamide], 36.8 nM; that for `CC[C@@]1(C)OCc2cnc(C(=O)N[C@H]3CCn4nc(C5CC5)cc4N(C)C3=O)cc21` [Example 245, (R)—N—((S)-2-cyclopropyl-4-methyl-5-oxo-5,6,7,8-tetrahydro-4H-pyrazolo[1,5-a][1,3]diazepin-6-yl)-1-ethyl-1-methyl-1,3-dihydrofuro[3,4-c]pyridine-6-carboxamide], 782 nM.
The result for `Cc1cc2n(n1)CCC(NC(=O)c1ncn(CC3CCC(F)(F)CC3)n1)C(=O)N2C` (stereo not shown) [Example 246, 1-((4,4-difluorocyclohexyl)methyl)-N-(2,4-dimethyl-5-oxo-5,6,7,8-tetrahydro-4H-pyrazolo[1,5-a][1,3]diazepin-6-yl)-1H-1,2,4-triazole-3-carboxamide] reads 695 nM; that for `Cc1cc2n(n1)CCC(NC(=O)c1ncn(CC3CCC3)n1)C(=O)N2C` (stereo not shown) [Example 247, 1-(cyclobutylmethyl)-N-(2,4-dimethyl-5-oxo-5,6,7,8-tetrahydro-4H-pyrazolo[1,5-a][1,3]diazepin-6-yl)-1H-1,2,4-triazole-3-carboxamide], 221 nM.
The same measure for `Cc1cc2n(n1)CCC(NC(=O)c1ncn(CC3CC(F)(F)C3)n1)C(=O)N2C` (stereo not shown) [Example 248, 1-((3,3-difluorocyclobutyl)methyl)-N-(2,4-dimethyl-5-oxo-5,6,7,8-tetrahydro-4H-pyrazolo[1,5-a][1,3]diazepin-6-yl)-1H-1,2,4-triazole-3-carboxamide]: 1100 nM; for `Cc1cc2n(n1)CCC(NC(=O)c1ncn(Cc3ccc(Cl)cc3)n1)C(=O)N2C` (stereo not shown) [Example 249, 1-(4-chlorobenzyl)-N-(2,4-dimethyl-5-oxo 6,7,8-tetrahydro-4H-pyrazolo[1,5-a][1,3]diazepin-6-yl)-1H-1,2,4-triazole-3-carboxamide]: 92.1 nM.
As for `Cc1cc2n(n1)CCC(NC(=O)c1ncn(CCC(F)(F)F)n1)C(=O)N2C` (stereo not shown) [Example 250, N-(2,4-dimethyl-5-oxo-5,6,7,8-tetrahydro-4H-pyrazolo[1,5-a][1,3]diazepin-6-yl)-1-(3,3,3-trifluoropropyl)-1H-1,2,4-triazole-3-carboxamide], the Ki came to 1000 nM.
The result for `Cc1cc2n(n1)CCC(NC(=O)c1ncn(CC3CCCC3)n1)C(=O)N2C` (stereo not shown) [Example 251, 1-(cyclopentylmethyl)-N-(2,4-dimethyl-5-oxo-5,6,7,8-tetrahydro-4H-pyrazolo[1,5-a][1,3]diazepin-6-yl)-1H-1,2,4-triazole-3-carboxamide] reads 136 nM; that for `CC(C1CCn2nnc(C(=O)N[C@H]3COc4ccccc4N(C)C3=O)c2C1)C(F)(F)F` (stereo partly drawn) [Example 252, N—((S)-5-methyl-4-oxo-2,3,4,5-tetrahydrobenzo[b][1,4]oxazepin-3-yl)-5-(1,1,1-trifluoropropan-2-yl)-4,5,6,7-tetrahydro-[1,2,3]triazolo[1,5-a]pyridine-3-carboxamide], 70.7 nM.
The same measure for `Cc1cc2n(n1)CCC(NC(=O)c1ncn(CC3CCCCC3)n1)C(=O)N2C` (stereo not shown) [Example 253, 1-(cyclohexylmethyl)-N-(2,4-dimethyl-5-oxo-5,6,7,8-tetrahydro-4H-pyrazolo[1,5-a][1,3]diazepin-6-yl)-1H-1,2,4-triazole-3-carboxamide]: 171 nM.

The values are drawn from patent US10988459B2 (priority 2015, dated 2021).
